The source of these data is US9156877B2, “17-hydroxy-17-pentafluorethyl-estra-4,9(10)-dien-11-benzylidene derivatives, methods for the production thereof and use thereof for treating diseases” (Bayer Intellectual Property GmbH, priority 2009, dated 2015).

Values after ≈ are worked out from the molar mass of the structure shown. Bounds are passed on as bounds.

For series [1] the following is noted: compared to the compounds of the invention; cited from earlier work.
For series [2] the following is noted: compared to the compounds of the invention; cited from earlier work. The source holds these as a separate data set.
The next series has as its system pregnant rats. The experiment in a line: Abortion test on female rats. As to conditions: d5-d7 p.c., autopsy d9 p.c. The class given is in vivo, rat. As for the experimental part:
Abortion Test on Female Rats
The action of progesterone and of the progesterone receptor is a fundamental precondition for successful pregnancy or gestation in mammals. The progesterone-antagonistic action of the inventive compounds was tested on pregnant rats (6 rats per group) on days 5 to 7 post coitum under conventional housing and feeding conditions.
After successful mating, the pregnant animals (presence of sperm in the vaginal smear on day 1 of pregnancy=d1 p.c.) were randomized and divided into the treatment group and the control group. The animals then each received subcutaneously or orally 0.15; 0.5; 1.5 or 5 mg/kg of the test compound or 1.0 ml/kg of vehicle (benzyl benzoate/castor oil: 1+4 [v/v]) daily from day 5 to day 7 (d5-d7 p.c.).
Autopsy was conducted on day 9 (d9 p.c.). As a characteristic of progesterone receptor-antagonistic action, the uterus was examined for the presence of nidation sites. Complete absence, or else the presence of pathological, haemorrhagic or otherwise abnormal nidation sites, on day 9 (d9 p.c.) was considered as abortion.

A short description of series [3]: Metabolic stability in rat liver microsomes. As to conditions: for Predicted clearance [l/h/kg] Rat: well-stirred model. The class given is in vitro ADME. The method in brief:
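Liver microsomes (solution at 0.5 mg/ml protein before cofactor addition) with 1 μM compound (final) and an NADPH-generating system at 37 °C, 100 mM phosphate pH 7.4, were sampled at 6 time points (2-60 min), methanol-quenched and analysed by LC-MS/MS. Half-life gave intrinsic clearance, and Fmax assumed 100% absorption and purely microsomal first pass.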

A short description of series [4]: Metabolic stability in human liver microsomes. The class given is in vitro ADME. Conditions: for Predicted clearance [l/h/kg] Human: 1 μM, well-stirred model. The method in brief: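 Human liver microsomes (0.5 mg/ml protein) were incubated with compound at 1 μM final and an NADPH-generating system in 100 mM phosphate pH 7.4 at 37 °C. Six samples (2–60 min) were methanol-quenched and measured by LC-MS/MS. Degradation half-life gave intrinsic clearance; Fmax assumed 100% absorption and first pass equal to microsomal metabolism.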

Series [5] has as its target T1, human progesterone receptor B (Homo sapiens, UniProt P06401).
T1 construct: expressed in transfected cells; host or cells: SK-N-MC human neuroblastoma cells, stably transfected with pRChPR-B-neo and pMMTV-LUC
T1 sequence (P06401 1-933): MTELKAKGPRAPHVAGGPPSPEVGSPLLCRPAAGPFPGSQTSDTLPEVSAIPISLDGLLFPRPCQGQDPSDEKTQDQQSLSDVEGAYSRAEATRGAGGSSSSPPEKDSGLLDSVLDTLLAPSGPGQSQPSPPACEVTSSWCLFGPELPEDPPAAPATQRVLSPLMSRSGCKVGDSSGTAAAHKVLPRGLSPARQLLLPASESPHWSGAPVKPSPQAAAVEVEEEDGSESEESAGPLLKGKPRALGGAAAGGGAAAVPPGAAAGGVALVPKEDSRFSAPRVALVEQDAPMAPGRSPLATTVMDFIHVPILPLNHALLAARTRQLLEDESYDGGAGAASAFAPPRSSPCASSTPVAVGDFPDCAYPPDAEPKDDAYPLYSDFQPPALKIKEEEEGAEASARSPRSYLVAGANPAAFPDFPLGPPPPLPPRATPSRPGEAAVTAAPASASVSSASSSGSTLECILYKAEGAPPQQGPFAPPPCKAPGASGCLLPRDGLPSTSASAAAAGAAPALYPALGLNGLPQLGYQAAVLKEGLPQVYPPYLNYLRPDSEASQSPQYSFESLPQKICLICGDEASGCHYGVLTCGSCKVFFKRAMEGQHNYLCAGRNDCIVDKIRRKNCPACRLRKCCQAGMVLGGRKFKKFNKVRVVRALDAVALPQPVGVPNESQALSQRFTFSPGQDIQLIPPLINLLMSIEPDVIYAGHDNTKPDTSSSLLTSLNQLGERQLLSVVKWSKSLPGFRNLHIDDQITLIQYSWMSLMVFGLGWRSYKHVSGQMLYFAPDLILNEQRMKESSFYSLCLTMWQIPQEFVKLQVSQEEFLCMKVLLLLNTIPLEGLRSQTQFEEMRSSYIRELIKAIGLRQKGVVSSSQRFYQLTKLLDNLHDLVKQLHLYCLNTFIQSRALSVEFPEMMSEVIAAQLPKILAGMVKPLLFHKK
The experiment in a line: Progesterone receptor-antagonistic action in stably transfected SK-N-MC cells with MMTV-LUC reporter (PR-B). As to conditions: antagonistic potency against 0.1 nmol/l promegestone, 24 hours, luciferase. The series is classed as cell-based. The method in brief:
(§1)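 SK-N-MC neuroblastoma cells stably expressing human PR-A or PR-B plus MMTV-LUC reporter, treated 24 h with test compound (0.01 nmol/l–[…]). Antagonist mode used co-treatment with 0.1 nmol/l promegestone; luciferase in lysates read as RLU, expressed as % efficacy and IC50/EC50.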

The target of series [6] is T2, human progesterone receptor A (Homo sapiens, UniProt P06401).
T2 construct: expressed in transfected cells; host or cells: SK-N-MC human neuroblastoma cells, stably transfected with pRChPR-A-neo and pMMTV-LUC
T2 sequence (P06401 1-769 isoform P06401-2): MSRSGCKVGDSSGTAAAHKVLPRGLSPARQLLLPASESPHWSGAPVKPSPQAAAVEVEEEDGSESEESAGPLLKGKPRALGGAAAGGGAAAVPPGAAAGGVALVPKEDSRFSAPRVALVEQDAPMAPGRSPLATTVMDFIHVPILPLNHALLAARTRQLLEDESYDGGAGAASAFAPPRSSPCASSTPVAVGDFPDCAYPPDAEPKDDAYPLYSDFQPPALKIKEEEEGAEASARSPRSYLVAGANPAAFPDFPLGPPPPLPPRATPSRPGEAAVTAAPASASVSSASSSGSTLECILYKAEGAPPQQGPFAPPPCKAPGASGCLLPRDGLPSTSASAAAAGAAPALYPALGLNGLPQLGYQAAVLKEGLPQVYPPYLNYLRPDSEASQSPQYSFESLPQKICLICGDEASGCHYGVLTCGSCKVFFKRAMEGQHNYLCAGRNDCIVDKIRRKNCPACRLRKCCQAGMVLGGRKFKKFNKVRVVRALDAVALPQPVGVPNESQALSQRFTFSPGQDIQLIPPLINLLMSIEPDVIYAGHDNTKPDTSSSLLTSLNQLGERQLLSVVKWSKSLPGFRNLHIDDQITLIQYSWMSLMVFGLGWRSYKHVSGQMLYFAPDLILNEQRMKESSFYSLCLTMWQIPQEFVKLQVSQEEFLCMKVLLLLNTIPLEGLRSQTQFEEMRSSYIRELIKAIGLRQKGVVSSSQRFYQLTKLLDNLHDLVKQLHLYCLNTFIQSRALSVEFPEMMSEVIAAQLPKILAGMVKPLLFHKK
As to the kind of experiment: Progesterone receptor-antagonistic action in stably transfected SK-N-MC cells with MMTV-LUC reporter (PR-A). Conditions: antagonistic potency against 0.1 nmol/l promegestone, 24 hours, luciferase. The series is classed as cell-based. Put shortly: as §1

Series [7] can be described thus: Solubility in aqueous medium at pH 7.4. As to conditions: for solubility (in words): aqueous medium under physiological conditions; for solubility: aqueous medium, pH 7.4, aqueous buffer. The class given is physicochemical. An excerpt: In addition, some compounds have an unusually good solubility, for this active ingredient class, in aqueous medium under physiological conditions (Table 2).

In the case of `CC(=O)c1ccc(C2CC3(C)C(CCC3(O)C(F)(F)C(F)(F)F)C3CCC4=CC(=O)CCC4=C23)cc1` (stereo not drawn) [11-β-(4-acetylphenyl)-20,20,21,21,21-pentafluoro-17-hydroxynor-17-pregna-4,9-dien-3-one], in series [1], the “water solubility (in words)” value was “poor”. Also, the “in vivo half-life (in words)” value in series [2] is “relatively short”.

With `C[C@]12C[C@H](c3ccc(/C=C/C=C/C(=O)O)cc3)C3=C4CCC(=O)C=C4CC[C@H]3[C@@H]1CC[C@@]2(O)C(F)(F)C(F)(F)F` [Example 17, (2E,4E)-5-[4-((8S,11R,13S,14S,17S)-17-hydroxy-13-methyl-3-oxo-17-pentafluoroethyl-2,3,6,7,8,11,12,13,14,15,16,17-dodecahydro-1H-cyclopenta[a]phenanthren-11-yl)phenyl]penta-2,4-dienoic acid], in the series with pregnant rats (daily dose 0.5 mg/kg p.o.), the “Abortion rate [%]” value is on record as 0%. Further, the “Abortion rate [%]” value in the series on pregnant rats (daily dose 1.5 mg/kg p.o.) stood at 16.7%. Further, the “Abortion rate [%]” value with pregnant rats (daily dose 5.0 mg/kg p.o.) turned out to be 100.0%. Moreover, in series [3], the “Predicted Fmax [%] (maximum oral bioavailability) Rat” value is reported as 91% and the “Predicted clearance [l/h/kg] Rat” value is 0.4 L/h/kg. Besides, in series [4], the “Predicted Fmax [%] (maximum oral bioavailability) Human” value was 33% and the “Predicted clearance [l/h/kg] Human” value was 0.89 L/h/kg. This compound also returned an IC50 in series [5] of 700 pM. The same compound had an IC50 in series [6] of 100 pM. Further, in series [7], the “solubility (in words)” value is “improved” and the solubility was greater than 188 µg/mL.

With `C[C@]12C[C@H](c3ccc(/C=C/c4cccc(C(=O)O)c4)cc3)C3=C4CCC(=O)C=C4CC[C@H]3[C@@H]1CC[C@@]2(O)C(F)(F)C(F)(F)F` [Example 28, 3-{(E)-2-[4-((8S,11R,13S,14S,17S)-17-hydroxy-13-methyl-3-oxo-17-pentafluoroethyl-2,3,6,7,8,11,12,13,14,15,16,17-dodecahydro-1H-cyclopenta[a]phenanthren-11-yl)phenyl]vinyl}benzoic acid], in series [3], the “Predicted Fmax [%] (maximum oral bioavailability) Rat” value is reported as 97% and the “Predicted clearance [l/h/kg] Rat” value was 0.1 L/h/kg. In series [4], the “Predicted Fmax [%] (maximum oral bioavailability) Human” value was 74% and the “Predicted clearance [l/h/kg] Human” value was 0.35 L/h/kg. The compound further showed an IC50 in series [5] of 100 pM. Also, the concentration for half-maximal inhibition (IC50) in series [6] was found to be 60 pM. In series [7], the “solubility (in words)” value is on record as “improved” and the concentration in solution (solubility) was 120 µg/mL (≈ 196 µM).

For the compound `C[C@]12C[C@H](c3ccc(/C=C/c4ccc(C(=O)O)cc4)cc3)C3=C4CCC(=O)C=C4CC[C@H]3[C@@H]1CC[C@@]2(O)C(F)(F)C(F)(F)F` [Example 29, 4-{(E)-2-[4-((8S,11R,13S,14S,17S)-17-hydroxy-13-methyl-3-oxo-17-pentafluoroethyl-2,3,6,7,8,11,12,13,14,15,16,17-dodecahydro-1H-cyclopenta[a]phenanthren-11-yl)phenyl]vinyl}benzoic acid], the “Abortion rate [%]” value in the series with pregnant rats (daily dose 0.5 mg/kg p.o.) is reported as 0%. Also, in the series on pregnant rats (daily dose 1.5 mg/kg p.o.), the “Abortion rate [%]” value is 16.7%. Besides, the “Abortion rate [%]” value with pregnant rats (daily dose 5.0 mg/kg p.o.) came out at 100.0%. Also, in series [3], the “Predicted Fmax [%] (maximum oral bioavailability) Rat” value is listed as 100% and the “Predicted clearance [l/h/kg] Rat” value is 0.0 L/h/kg. In series [4], the “Predicted Fmax [%] (maximum oral bioavailability) Human” value is 94% and the “Predicted clearance [l/h/kg] Human” value was 0.08 L/h/kg. Moreover, the IC50 in series [5] came out at 90 pM. Inhibition in series [6] was half-maximal at 80 pM (IC50). For the same compound, in series [7], the “solubility (in words)” value is listed as “improved” and the solubility came out at 102 µg/mL (≈ 166 µM).

Turning to `CCO/N=C/c1ccc([C@H]2C[C@@]3(C)[C@@H](CC[C@@]3(O)C(F)(F)C(F)(F)F)[C@@H]3CCC4=CC(=O)CCC4=C32)cc1` [Example 36, 4-((8S,11R,13S,14S,17S)-17-hydroxy-13-methyl-3-oxo-17-pentafluoroethyl-2,3,6,7,8,11,12,13,14,15,16,17-dodecahydro-1H-cyclopenta[a]phenanthren-11-yl)benzaldehyde O-ethyl oxime], in series [3], the “Predicted Fmax [%] (maximum oral bioavailability) Rat” value was 82% and the “Predicted clearance [l/h/kg] Rat” value is 0.8 L/h/kg. Moreover, in series [4], the “Predicted Fmax [%] (maximum oral bioavailability) Human” value was 72% and the “Predicted clearance [l/h/kg] Human” value is 0.36 L/h/kg. For the same compound, in series [5], the IC50 came to 80 pM. The IC50 in series [6] was determined as 80 pM. This compound also displayed a solubility in series [7] of 5 µg/mL (≈ 9.3 µM).
